From PMC4226840, “An open-label study to determine the maximum tolerated dose of the multitargeted tyrosine kinase inhibitor CEP-11981 in patients with advanced cancer” (Investigational New Drugs, 2014)

Tests used:
VEGFR-1 = system: VEGFR-1; parameters: method as in PMID 22148921; details: in vitro; cited from earlier work
VEGFR-2 = system: VEGFR-2; parameters: method as in PMID 22148921; details: in vitro; cited from earlier work
Aurora A = system: Aurora A; parameters: method as in PMID 22148921; details: cited from earlier work
[1] = Phase I dose escalation: MTD and DLTs; format: in vivo, human
Protocol: This was an open-label, nonrandomized, multicenter, dose-escalation phase I study of CEP-11981 in patients with advanced, relapsed/refractory solid tumors. The study was conducted in accordance with Good Clinical Practice: Consolidated Guidance approved by the International Conference on Harmonisation, and applicable national and local laws and regulations and approved by appropriate Independent Ethics Committees or Institutional Review Boards. All patients provided written consent before study procedures or assessments were performed.
The primary measures were MTD and DLTs. MTD was defined as the highest dose at which one-third or fewer of patients in a cohort experienced a DLT, which included grade ≥ 2 proteinuria, grade ≥ 3 nonhematologic toxicity (excluding hypertension and pain), grade ≥ 3 thrombocytopenia with bleeding, or grade 4 hematologic toxicity that was not clearly due to progressive cancer. Secondary measures included the pharmacokinetics of CEP-11981 after a single dose and multiple doses, the pharmacokinetic-pharmacodynamic profile of CEP-11981, safety, and preliminary efficacy. The efficacy endpoint was the proportion of patients who achieved complete or partial response on study (minimum of 6 weeks) according to Response Evaluation Criteria in Solid Tumors (RECIST) guidelines.
Oral CEP-11981 was administered once daily for the first 28 days of each 42-day cycle. Initial dose escalation from the starting dose of 3 mg/m^2 was by 40 % increments. After completion of additional toxicology studies and the preliminary analysis of plasma exposure in patients, the dose for the fourth cohort was doubled from the third cohort and thereafter the escalation followed a modified Fibonacci sequence. The final dose levels were: 3.0, 4.2, 5.9, 11.8, 19.7, 29.6, 41.4, 55.0, 73.0, 97.4, and 126.6 mg/m^2. The dose administered was rounded to the smallest capsule strength available. Dosing for a patient was to be stopped at the onset of a DLT and, at resolution within 14 days, could be resumed at a dose equal to 50 % of the patient’s current dose. […]

[2] = target: fibroblast growth factor receptor-1; parameters: method as in PMID 22148921; details: cited from earlier work
[3] = Phase I safety: adverse events (CTCAE v3.0)
Protocol: Adverse events were recorded and graded according to the Common Terminology Criteria for Adverse Events, version 3.0.
Physical examinations, urinalysis, ECG, and laboratory evaluations (including serum chemistry and hematology) were performed at screening and on days 1, 2, 8, 15, 22, and 29 of cycle 1; on days 1, 15, and 29 of subsequent cycles; and at the end-of-treatment follow-up visit (14 days after the last dose). Adverse events were evaluated on days 2, 8, 15, and 22 of cycle 1; on days 1, 15, and 29 of every subsequent cycle; and at the end-of-treatment follow-up visit.

11-(2-methylpropyl)-12,13-dihydro-2-methyl-8-(pyrimidin-2-ylamino)-4H-indazolo[5,4-a]pyrrolo[3,4-c]carbazol-4-one [CEP-11981]
IC50 (VEGFR-1): 3 nM | IC50 (VEGFR-2): 4 nM | IC50 (Aurora A): 42 nM | DLTs ([1]; 97.4 mg/m^2 cohort, n = 9): no DLTs were observed | Patients with DLTs ([1]; 126.6 mg/m^2 cohort, n = 2): 2 patients | Maximum-tolerated dose (MTD) ([1]; oral once daily, first 28 days of each 42-day cycle, patients with solid tumors): 97.4 mg/m^2 | IC50 [2]: 13 nM | Grade 3/4 adverse events ([3]; 3.0 mg/m^2 n = 3): • Abdominal pain • Arthralgia • Back pain | Grade 3/4 adverse events ([3]; 4.2 mg/m^2 n = 3): • Abdominal pain | Grade 3/4 adverse events ([3]; 5.9 mg/m^2 n = 5): • Hyperkalemia | Grade 3/4 adverse events ([3]; 19.7 mg/m^2 n = 3): • Back pain • Hypokalemia • Hyponatremia • Lumbar vertebral fracture | Grade 3/4 adverse events ([3]; 55.0 mg/m^2 n = 5): • Abdominal pain • Anxiety • Arthralgia • Back pain • Cellulitis • Constipation • Hypokalemia • Impaired healing • Musculo-skeletal pain • Peripheral edema • Scrotal edema • Somnolence | Grade 3/4 adverse events ([3]; 73.0 mg/m^2 n = 3): • Anemia • Leukopenia • Diarrhea • Decreased appetite • Musculo-skeletal pain • Neck pain • Headache • Pleural effusion | Grade 4 leukopenia ([3]; 126.6 mg/m^2 cohort): 1 patient | Grade 4 neutropenia ([3]; 126.6 mg/m^2 cohort): 1 patient | Grade 3/4 adverse events ([3]; 126.6 mg/m^2 n = 2, ^b treatment-related): • Neutropenia^b • ECG change | Grade 3/4 abdominal pain ([3]; across all groups): 7% | Grade 3/4 back pain ([3]; across all groups): 7% | Grade 3/4 lymphopenia ([3]; across all groups): 19% | Grade 3/4 neutropenia ([3]; across all groups): 7% | Patients with ECG changes ([3]; all cohorts): 2% | Patients with hypertension ([3]; all cohorts): 2% | Abdominal pain, any grade ([3]; all cohorts, N = 43): 30% | Back pain, any grade ([3]; all cohorts, N = 43): 28% | Constipation, any grade ([3]; all cohorts, N = 43): 28% | Deaths during the study ([3]; all cohorts, N = 43): No deaths occurred | Decreased appetite, any grade ([3]; all cohorts, N = 43): 33% | Diarrhea, any grade ([3]; all cohorts, N = 43): 33% | Dizziness, any grade ([3]; all cohorts, N = 43): 28% | Dyspnea, any grade ([3]; all cohorts, N = 43): 23% | Fatigue, any grade ([3]; all cohorts, N = 43): 51% | Headache, any grade ([3]; all cohorts, N = 43): 28% | Nausea, any grade ([3]; all cohorts, N = 43): 47% | Patients with adverse events possibly, probably, or definitely related to study drug ([3]; all cohorts, N = 43): 88.3% | Patients with grade 3 adverse events ([3]; all cohorts, N = 43): 32.6% | Patients with grade 3 or 4 adverse events ([3]; all cohorts, N = 43): 37% | Patients with grade 3 or 4 laboratory hematologic toxicities ([3]; all cohorts, N = 43): 18.6% | Patients with grade 4 adverse events ([3]; all cohorts, N = 43): 4.7% | Patients with ≥ 1 adverse event ([3]; all cohorts, N = 43): 43 patients | Serious adverse events ([3]; all cohorts, N = 43): 12 patients | Vomiting, any grade ([3]; all cohorts, N = 43): 28%
